Reference: patent US8404738B2 (Hoffmann-La Roche Inc., priority 2011, dated 2013)
pEC50, pIC50: −log10 of the molar value. Where two headings read alike, the source gives them in different places.

Experiments:
[1] = tested on: p21 promoter-luciferase construct; assay: p21 reporter gene induction (HeLa cells, p21 promoter-luciferase construct); details: for p21 RP3: relative gene level of p21 compared to MS275 at 3 μM; for p21 RP10: relative level of p21 compared to MS275 at 10 μM; for p21 RP30: relative level of p21 compared to MS275 at 30 μM;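 as to all read-outs here: transfected HeLa cells exposed to compound for 15 h, luciferase luminescence read from lysates, p21 promoter lacks p53 site, proxy for cellular HDAC1/2/3 inhibition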
Protocol: As a surrogate for in-cell HDAC1/2/3 inhibition, p21 induction was used as a counterscreen to evaluate the selectivity of the compounds in the present invention toward HDAC6 or HDAC8.
The novel compounds of the present invention were tested for their ability to induce p21 gene expression using a reporter gene assay involving HeLa cells transfected with a p21 promoter-luciferase construct. The p21 promoter contained the Sp1/Sp3 binding site for HDAC but not the upstream p53 binding site. Briefly, the day before transfection, HeLa cells were seeded at 11,000 cells/well in a 96-well culture plate and incubated at 37° C. in 5% CO2 overnight. A transfection media was prepared prior to transfection according to the following procedure: (1) 5 μl serum-free DMEM, 0.15 μl Fugene 6 reagent, 40 ng p21-luc, 10 ng GFP were mixed gently and incubated at rt for 30 minutes; (2), then 98 μl DMEM (with 10% FBS, 1% penicillin and streptomycin) was added to the DNA: Fugene 6 reagent complex and mixed gently. For transfection, the medium was removed and replaced with 100 μl/well transfection media which was prepared according to the procedure above. After incubating the cells for 24 hours at 37° C. in 5% CO2, fresh media and test compounds were added to the wells and the cells further incubated for 15 hours at 37° C. in 5% CO2. Cells were lysed by adding 80 μl/well of a cell culture lysis reagent (Promega). 50 μl of each lysate was taken for GFP detection using an excitation wavelength of 486 nm and detection at 527 nm. 100 μl luciferase assay reagent (Promega) was then added to every 20 μl cell lysate for luminometer detection.

HDAC6 = target: T1, HDAC6 (Homo sapiens, UniProt Q9UBN7); assay: Tubulin acetylation cytoblot assay (A549 cells); type: cell-based; details: 17-18 h incubation, tubulin acetylation as marker of HDAC6 inhibition, read-out: Tub-Ac EC50
T1 construct: endogenous in cells; host or cells: A549 cells
T1 sequence (Q9UBN7 1-1215): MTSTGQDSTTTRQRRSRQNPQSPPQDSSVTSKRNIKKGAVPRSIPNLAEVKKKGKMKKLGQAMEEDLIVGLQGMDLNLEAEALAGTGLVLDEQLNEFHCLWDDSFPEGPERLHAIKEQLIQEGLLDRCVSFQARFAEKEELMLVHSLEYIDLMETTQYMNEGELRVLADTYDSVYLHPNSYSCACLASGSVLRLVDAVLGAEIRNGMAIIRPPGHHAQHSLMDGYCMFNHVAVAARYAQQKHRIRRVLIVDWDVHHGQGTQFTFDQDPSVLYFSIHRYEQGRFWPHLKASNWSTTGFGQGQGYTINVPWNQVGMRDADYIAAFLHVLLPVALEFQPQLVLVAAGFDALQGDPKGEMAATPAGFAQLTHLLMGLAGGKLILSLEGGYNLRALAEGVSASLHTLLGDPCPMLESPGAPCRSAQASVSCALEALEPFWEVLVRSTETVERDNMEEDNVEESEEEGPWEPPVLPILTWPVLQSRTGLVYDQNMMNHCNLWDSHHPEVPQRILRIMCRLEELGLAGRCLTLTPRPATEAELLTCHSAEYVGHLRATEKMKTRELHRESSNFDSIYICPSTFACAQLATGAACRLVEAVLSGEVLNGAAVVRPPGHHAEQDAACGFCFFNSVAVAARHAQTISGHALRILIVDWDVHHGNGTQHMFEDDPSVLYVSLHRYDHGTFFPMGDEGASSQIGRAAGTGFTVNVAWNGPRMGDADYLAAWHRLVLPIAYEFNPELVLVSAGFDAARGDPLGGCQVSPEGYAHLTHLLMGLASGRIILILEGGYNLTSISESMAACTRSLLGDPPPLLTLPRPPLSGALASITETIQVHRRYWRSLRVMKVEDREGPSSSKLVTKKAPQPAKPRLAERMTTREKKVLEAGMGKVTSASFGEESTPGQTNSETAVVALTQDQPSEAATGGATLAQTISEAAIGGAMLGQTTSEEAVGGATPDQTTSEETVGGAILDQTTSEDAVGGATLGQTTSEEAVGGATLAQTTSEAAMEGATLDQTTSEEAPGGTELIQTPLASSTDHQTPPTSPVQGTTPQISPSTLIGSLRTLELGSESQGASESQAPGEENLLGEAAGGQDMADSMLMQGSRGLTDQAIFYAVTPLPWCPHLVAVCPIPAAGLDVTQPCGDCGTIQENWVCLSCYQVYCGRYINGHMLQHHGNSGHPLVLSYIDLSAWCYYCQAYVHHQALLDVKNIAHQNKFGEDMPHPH
Protocol: Tubulin Acetylation Induction by Novel Compounds: Tubulin Acetylation Cytoblot Assay.
Tubulin acetylation is a PD marker for HDAC6 inhibition. The extent of tubulin acetylation represents the inhibitory effect on HDAC6.
Novel compounds were tested for their ability to inhibit HDAC6 using a cell-based deacetylation assay. Tubulin acetylation was detected by the anti-acetylated tubulin antibody (Sigma) and horse radish peroxidase (HRP) conjugated secondary antibody (KangChen Bio. Tech.). […] 20 μl of diluted compound solution was transferred to the cell culture plate and incubated for 17-18 h. After medium removal and fixation by formaldehyde (3.7% paraformaldehyde in TBS), the cells in the plates were treated with 180 μl of −20° C. MeOH and incubated for 5 min at rt. The cell lysis was incubated with 75 μl of primary anti-acetylated tubulin antibody and secondary HRP conjugated antibody solution (1:750 anti-acetylated tubulin, 1:750 HRP conjugated anti-mouse IgG in antibody dilution buffer not containing sodium azide) for 4 h at 4° C. By adding the HRP substrate, enhanced chemiluminescence (ECL) reagent (GE Healthcare) generated luminescence corresponding to the level of tubulin acetylation. So that 75 μl of ECL was added into the wells and the luminescence from each well was immediately quantified by the plate reader. Based on the luminescence reading, the Tub-Ac EC50s against HDAC6 of the tested compounds were calculated by plotting the curve with XLfit4.0 software. Inhibition %=[signal(sample)−Mean(bottom)]×100/[Mean(top)−Mean(bottom)]

recombinant human HDAC8 = target: T2, recombinant human HDAC8 (Homo sapiens, UniProt Q9BY41); assay: HDAC8 inhibition: recombinant HDAC8 fluorometric assay; type: biochemical
T2 construct: made in house; host or cells: insect cells
T2 sequence (Q9BY41 1-377): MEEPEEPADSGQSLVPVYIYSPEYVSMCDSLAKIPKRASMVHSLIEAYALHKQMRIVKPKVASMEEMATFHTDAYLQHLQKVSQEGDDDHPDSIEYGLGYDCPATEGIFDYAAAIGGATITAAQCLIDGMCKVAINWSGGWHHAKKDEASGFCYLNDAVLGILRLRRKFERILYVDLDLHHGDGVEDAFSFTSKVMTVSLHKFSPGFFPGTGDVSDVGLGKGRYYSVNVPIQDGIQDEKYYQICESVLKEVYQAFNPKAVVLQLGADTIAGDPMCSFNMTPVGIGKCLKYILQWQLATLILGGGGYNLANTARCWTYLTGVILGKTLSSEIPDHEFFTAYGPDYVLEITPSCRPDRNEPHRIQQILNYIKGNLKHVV
Protocol: HDAC8 Inhibition by Novel Compounds: Recombinant HDAC8 Fluorometric Assay.
A competitive inhibitory assay of HDAC8 was carried out by using recombinant HDAC8 and a commercial substrate Ac-Arg-His-Lys-Lys(ε-acetyl)-AMC.
Compounds were tested for their ability to inhibit histone deacetylase 8 using an in vitro deacetylation assay. The enzyme source for this assay was recombinant human HDAC8 protein expressed and purified from insect cells. […] The substrate consisted of a commercial product Ac-Arg-His-Lys-Lys(ε-acetyl)-AMC (substrate is available from Cayman Chemical). […] 1 μl of half-log diluted compounds were added into wells and incubated for 15 min at rt. After that, 8 μl of substrate solution was transferred to the wells and incubated for 30 min at rt. After deacetylation of the substrate by incubation with HDAC8 enzyme, subsequent exposure to a developing reagent produced a fluorophore that was directly proportional to the level of deacetylation. […] The fluorescence signal was measured by a FlexStation3 plate reader (excitation wave length 340-360 nm; emission wave length 440-465 nm). The HDAC8 IC50 was calculated after normalization and curve fitting using XLfit4.0 software. Inhibition %=[Mean(top)−signal(sample)]×100/[Mean(top)−Mean(bottom)].

[2] = recombinant human HDAC8, substrate Ac-Arg-His-Lys-Lys(ε-acetyl)-AMC, read-out: HDAC8 IC50

SMILES | p21 RP3 [1] | p21 RP10 [1] | p21 RP30 [1] | pEC50 (HDAC6) | pIC50 (recombinant human HDAC8; [2]) | pIC50 (recombinant human HDAC8; HDAC8 IC50, recombinant human HDAC8, substrate Ac-Arg-His-Lys-Lys(ε-acetyl)-AMC)
C[C@H]1[C@H](Nc2ccc(C(=O)NO)cc2)CC(=O)N1c1ccc(Cl)cc1 (racemic) [Example 77, Trans-4-[1-(4-Chloro-phenyl)-2-methyl-5-oxo-pyrrolidin-3-ylamino]-N-hydroxy-benzamide] | 0.00 | 0.07 | 0.07 | 5.90 | 6.07 | 
O=C(NO)c1ccc(NC2CCN(c3ccccc3)C2=O)cc1 (stereo not shown) [Example 1] | 0.08 | 0.08 | 0.15 | 5.23 |  | 6.09
O=C(NO)c1ccc(NC2CCN(c3ccc(C(F)(F)F)cc3)C2=O)cc1 (stereo not shown) [Example 12, N-Hydroxy-4-[2-oxo-1-(4-trifluoromethyl-phenyl)-pyrrolidin-3-ylamino]-benzamide] | 0.01 | 0.10 | 0.14 |  | 6.00 | 
CCCCc1ccc(N2CCC(Nc3ccc(C(=O)NO)cc3)C2=O)cc1 (stereo not shown) [Example 15, 4-[1-(4-Butyl-phenyl)-2-oxo-pyrrolidin-3-ylamino]-N-hydroxy-benzamide] | 0.09 | 0.06 | 0.04 | 5.31 |  | 
O=C(NO)c1ccc(NC2CCN(c3ccc(Cl)cc3Cl)C2=O)cc1 (stereo not shown) [Example 23, 4-[1-(2,4-Dichloro-phenyl)-2-oxo-pyrrolidin-3-ylamino]-N-hydroxy-benzamide] | 0.10 | 0.04 | 0.03 |  | 5.85 | 
O=C(NO)c1ccc(NC2CCN(CCc3ccccc3)C2=O)cc1 (stereo not shown) [Example 43, N-Hydroxy-4-(2-oxo-1-phenethyl-pyrrolidin-3-ylamino)-benzamide] | −0.02 | 0.22 | 0.62 |  | 6.41 | 
COc1ccc(CN2CCC(Nc3ccc(C(=O)NO)cc3)C2=O)cc1 (stereo not shown) [Example 46, N-Hydroxy-4-[1-(4-methoxy-benzyl)-2-oxo-pyrrolidin-3-ylamino]-benzamide] | 0.07 | 0.26 | 0.70 |  | 6.41 | 
O=C(NO)c1ccc(NC2CCN(C3(c4ccccc4)CCC3)C2=O)cc1 (stereo not shown) [Example 54, N-Hydroxy-4-[2-oxo-1-(1-phenyl-cyclobutyl)-pyrrolidin-3-ylamino]-benzamide] | 0.28 | 0.46 | 0.79 |  | 6.51 | 
CCC1(Nc2ccc(C(=O)NO)cc2)CCN(C(C)(C)c2ccccc2)C1=O (stereo not shown) [Example 65, 4-[3-Ethyl-1-(1-methyl-1-phenyl-ethyl)-2-oxo-pyrrolidin-3-ylamino]-N-hydroxy-benzamide] | 0.00 | 0.00 | 0.00 |  | 6.25 | 
O=C(NO)c1ccc(NC2CCN(c3ccc(Cl)c(Cl)c3)C2=O)cc1F (stereo not shown) [Example 68, 4-[1-(3,4-Dichloro-phenyl)-2-oxo-pyrrolidin-3-ylamino]-2-fluoro-N-hydroxy-benzamide] | −0.05 | 0.02 | 0.01 | 5.18 |  | 
CC(C)(c1ccccc1)N1CC(Nc2ccc(C(=O)NO)cc2)CC1=O (stereo not shown) [Example 76, N-Hydroxy-4-[1-(1-methyl-1-phenyl-ethyl)-5-oxo-pyrrolidin-3-ylamino]-benzamide] |  |  |  | 5.52 | 5.73 | 
O=C(NO)c1ccc(NC2CCN(S(=O)(=O)c3ccccc3)C2)cc1 (stereo not shown) [Example 84, 4-(1-Benzenesulfonyl-pyrrolidin-3-ylamino)-N-hydroxy-benzamide] | 0.13 | 0.02 | 0.01 |  | 5.56 | 
O=C(NO)c1ccc(NC2CCN(S(=O)(=O)c3ccc(Cl)cc3)C2)cc1 (stereo not shown) [Example 86, 4-[1-(4-Chloro-benzenesulfonyl)-pyrrolidin-3-ylamino]-N-hydroxy-benzamide] | 0.04 | 0.01 | 0.01 |  | 5.81 | 
O=C(NO)c1ccc(NC2CCN(S(=O)(=O)c3ccc(-c4ccccc4)cc3)C2)cc1 (stereo not shown) [Example 87, 4-[1-(Biphenyl-4-sulfonyl)-pyrrolidin-3-ylamino]-N-hydroxy-benzamide] | 0.20 | 0.00 | −0.03 |  | 5.70 | 
O=C(NO)c1ccc(NC2CCN(C(=O)c3ccccc3)C2)cc1 (stereo not shown) [Example 88, 4-(1-Benzoyl-pyrrolidin-3-ylamino)-N-hydroxy-benzamide] | 0.35 | 0.06 | 0.03 |  | 5.87 | 
O=C(NO)c1ccc(NC2CCN(C(=O)c3ccc(F)cc3)C2)cc1 (stereo not shown) [Example 89, 4-[1-(4-Fluoro-benzoyl)-pyrrolidin-3-ylamino]-N-hydroxy-benzamide] | 0.38 | 0.10 | 0.06 |  | 6.05 | 
COc1ccc(C(=O)N2CCC(Nc3ccc(C(=O)NO)cc3)C2)cc1 (stereo not shown) [Example 90, N-Hydroxy-4-[1-(4-methoxy-benzoyl)-pyrrolidin-3-ylamino]-benzamide] | 0.38 | 0.09 | 0.05 |  | 6.04 | 
CC1(Nc2ccc(C(=O)NO)cc2)C(=O)N(CCc2ccccc2)c2ccccc21 (stereo not shown) [Example 94, N-hydroxy-4-(3-methyl-2-oxo-1-phenethyl-2,3-dihydro-1H-indol-3-ylamino)-benzamide] |  |  |  | 6.82 | 6.01 | 
